Several values for one entry are separate records, joined by “and”; a condition that tells them apart may be missing. Equal values may be shown once. Where a name gives a salt, the structure may show the parent alone. Read-outs that look alike come from different tables or passages of the source.
Experiments:
11 β-HSD type 2 = biological target: T1, 11 β-HSD type 2 (Rattus norvegicus, UniProt P50233); test: biochemical; settings: for inhibition at 10 µM: read-out: % […]→E ± SD, inhibitor 10 μM
T1 construct: Both the kidneys and livers were homogenised on ice in PBS- sucrose buffer; tissue Harlan Olac, Bicester, Oxon, UK (rats); host or cells: rat kidney homogenate supernatant (Wistar rat)
T1 sequence (P50233 1-400): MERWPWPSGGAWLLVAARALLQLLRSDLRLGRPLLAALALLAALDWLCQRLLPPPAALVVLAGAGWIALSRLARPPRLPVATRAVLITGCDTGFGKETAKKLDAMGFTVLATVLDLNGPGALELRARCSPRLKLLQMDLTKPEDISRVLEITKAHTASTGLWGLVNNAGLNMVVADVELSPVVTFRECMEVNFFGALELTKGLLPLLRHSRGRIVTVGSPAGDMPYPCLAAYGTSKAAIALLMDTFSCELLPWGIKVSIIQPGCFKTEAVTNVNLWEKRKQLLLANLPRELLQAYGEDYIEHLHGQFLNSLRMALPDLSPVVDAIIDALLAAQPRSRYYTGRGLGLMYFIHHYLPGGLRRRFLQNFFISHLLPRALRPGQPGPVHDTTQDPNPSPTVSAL
Experimental: Enzymes—Rat livers and rat kidneys were obtained from normal Wistar rats (Harlan Olac, Bicester, Oxon,UK). Both the kidneys and livers were homogenised on ice in PBS- sucrose buffer (1 g/10 ml) using an Ultra-Turrax. After the livers and kidneys were homogenised the homogenate was centrifuged for five minutes at 4000 rpm. The supernatant obtained was removed and stored in glass vials at −20° C. The amount of protein per μl of rat liver and kidney cytosol was determined using the Bradford method.
The same procedure was used for the 11 β-HSD type 2 assay, the conversion F to E, to determine the amount of rat kidney to be used and the incubation time.
In these assays the influence of different inhibitors on the 11 β-HSD activity both in reductive (type 1) and oxidative (type 2) directions were assessed. In the reductive direction E is the substrate and F the product and visa versa in the case of oxidation. The method described here is for the oxidative direction.
The substrate solution contained about 50,000 cpm/ml ^3H—F in PBS-sucrose and 0.5 pM F. 1 ml of the substrate solution was added to each tube, the inhibitors were also added, at a 10 μM concentration, to each tube except to the “control” and “blank” tubes. 150 μL was added to all tubes except to the blanks, this was done to correct for the amount of ^3H[…]. The tubes were incubated for 60 minutes in a mechanically shaken water bath at 37° C. […] After incubation 50 μL of recovery was added to correct for the losses made in the next steps, containing 5000 cpm/50 μL of ^14C-E and 50 μg/50 μL of unlabelled E (to visualise the spot on the TLC-plate). The aqueous mixture was then extracted with 4 ml of ether (2×30 sec cycle, vortex mix). After freezing the aqueous phase, the ether (upper) layer was decanted into smaller tubes and evaporated at 45° C. until completely dry. The residue was then re-dissolved in 6 drops of ether and transferred to a TLC-plate. The TLC-plate was developed in chloroform:methanol (9:1 v/v) solvent system, the TLC-plate ran for about 90 minutes until the solvent front had moved about 18 cm. The position of the product E was visualised under UV-light and cut out from the TLC-plate and put into scintillation vials. Radioactivity was eluted over 5 minutes with 0.5 ml methanol. 0.5 ml of PBS- sucrose and 10 ml of Ecoscint were then added and vortex mixed before counting in the scintillation counter. Before counting the samples, two total activity vials were prepared. These contained 0.5 ml of the substrate solution, 50 μL of the recovery, 0.5 ml of methanol and 10 ml of Ecoscint. These two total activity vials were needed to determine the amount of ^14C-E and ^3H—F added in the beginning to make the calculations.
To look at the percentage of inhibition four different concentrations, 1, 5, 10 and 20 μM, were used. The method for both the rat liver, type 1 the reductive, and rat kidney, type 2 the oxidative, stay the same throughout the entire experiment.
In this experiment the influence of different inhibitors on the conversion E to F and F to E was determined. The reason why inhibition in both directions was examined was to make a comparison between the inhibitors and which type of 11 β-HSD they inhibit more. Thirty-two compounds were screened for their ability to inhibit 11 β-HSD type 1 (E to F) and type 2 (F to E). […] The percent of inhibition was calculated as the percentage of decrease in radio labelled ^3H-E and ^3H—F of product formed, compared with the control activity (the tubes without an inhibitor in it). All the results calculated are means, n=2.

11 β-HSD type 1 = biological target: T2, 11 β-HSD type 1 (Rattus norvegicus, UniProt P16232); test: biochemical; format: biochemical; settings: rat liver cytosol 25 μL, 90 min, 37° C., cortisone (E) to cortisol (F), vs control without inhibitor, means n=2; for inhibition at 10 µM: read-out: % […]→F ± SD, inhibitor 10 μM; for % INHIBITION E→F ± SD: inhibitor 10 μM, 10 µM
T2 construct: Both the kidneys and livers were homogenised on ice in PBS- sucrose buffer; tissue Harlan Olac, Bicester, Oxon, UK (rats); host or cells: rat liver homogenate supernatant (Wistar rat)

[1] = rat kidney cytosol 150 μL, 60 min, 37° C., cortisol (F) to cortisone (E), vs control without inhibitor, means n=2, read-out: % INHIBITION F→E ± SD
[2] = read-out: % INHIBITION E→F ± SD

T2 sequence (P16232 whole entry): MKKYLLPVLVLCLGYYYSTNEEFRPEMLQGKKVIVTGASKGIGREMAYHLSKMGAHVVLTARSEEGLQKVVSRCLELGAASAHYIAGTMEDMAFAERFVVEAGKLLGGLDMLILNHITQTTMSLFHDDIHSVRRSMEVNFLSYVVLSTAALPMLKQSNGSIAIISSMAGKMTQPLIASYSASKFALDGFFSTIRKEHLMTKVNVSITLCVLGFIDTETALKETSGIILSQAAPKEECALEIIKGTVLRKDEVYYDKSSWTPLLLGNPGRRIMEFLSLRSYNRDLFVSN

SMILES	inhibition at 10 µM (11 β-HSD type 2; [1]) [%]	inhibition at 10 µM (11 β-HSD type 1; [2]) [%]	further results
C[C@]12CCC(=O)C=C1CCC1C2C(O)C[C@]2(C)C(=O)CCC12 (stereo partly drawn) [11β-OH-Androstenedione, reference compound]	40.9 ± 4.67	55.2 ± 0.26	–
CC1(C)C(=O)CC[C@]2(C)C3C(=O)C=C4[C@H]5C[C@@](C)(C(=O)O)CC[C@]5(C)CC[C@@]4(C)[C@]3(C)CC[C@@H]12 (stereo partly drawn) [BLE99005, 3,11-Dioxo-18α-olean-12-en-30-oic acid]	–	87	% INHIBITION E→F ± SD (11 β-HSD type 1): 86.9 ± 0.882%
CC1(C)CC[C@]2(C(=O)O)CC[C@]3(C)C(=CC[C@@H]4[C@@]5(C)CCC(=O)C(C)(C)[C@@H]5CC[C@]43C)[C@@H]2C1 [BLE99006, 3-Oxo-oleanoic acid]	–	–	% INHIBITION F→E ± SD (11 β-HSD type 2; inhibitor 10 μM, rat kidney cytosol 150 μL, 60 min, 37° C., cortisol (F) to cortisone (E), vs control without inhibitor, means n=2): 45.6 ± 11.030%; % INHIBITION E→F ± SD (11 β-HSD type 1): 22% and 22.2 ± 0.354%
CC1(C(=O)O)CCC2(C)CCC3C(=CC(=O)C4C3(C)CCC3C(C)(C)C(OC(=O)CCC(=O)O)CCC34C)C2C1 (stereo not drawn) [Carbenoxalone, Carbenoxalone (disodium salt), reference compound]	100	52.2 ± 4.8	–
C[C@]12CCC(=O)C=C1CC[C@@H]1[C@@H]2[C@@H](O)C[C@@]2(C)[C@H]1CC[C@]2(O)C(=O)CO [Cortisol, reference compound]	54.7 ± 4.24	49.6 ± 5.87	–
CC(=O)C1CCC2C3CCC4=CC(=O)CC[C@]4(C)C3[C@H](O)C[C@]12C (stereo partly drawn) [DG322B, 11-hydroxy-Progesterone]	–	32.6 ± 3.75	–
C[C@H](CCC(=O)O)[C@H]1CC[C@H]2[C@@H]3CC[C@@H]4C[C@H](O)CC[C@]4(C)[C@H]3C[C@H](O)[C@]12C [Deoxycholic acid, reference compound]	-1.1 ± 8.27	27.6 ± 7.85	stimulation of 11 β-HSD type 2 (F to E) (11 β-HSD type 2; inhibitor 10 μM, rat kidney, printed as stimulation, not inhibition): 1%
CC(=O)[C@H]1CC[C@H]2[C@@H]3CC=C4C[C@@H](O)CC[C@]4(C)[C@H]3CC[C@]12C [Pregnenolone, reference compound]	–	–	inhibition at 10 µM (11 β-HSD type 2; rat kidney cytosol 150 μL, 60 min, 37° C., cortisol (F) to cortisone (E), vs control without inhibitor, means n=2): 42.1 ± 0.777%; inhibition at 10 µM (11 β-HSD type 1): 49.8 ± 9.36%
CC(=O)C1CCC2C3CCC4=CC(=O)CC[C@]4(C)C3CC[C@]12C (stereo partly drawn) [Progesterone, reference compound]	68.5 ± 0.707	73	–
CC1(C)C2CC[C@]3(C)C(CC=C4[C@@H]5C[C@@](C)(C(=O)O)CC[C@]5(C)CC[C@]43C)[C@@]2(C)CC[C@@H]1O (stereo partly drawn) [STX122, 11-Deoxo-18β-glycerrhetinic acid]	109 ± 1.64	92.7 ± 1.23	–
COC(=O)[C@@]1(C)CC[C@]2(C)CC[C@]3(C)C(=CC(=O)C4[C@@]5(C)CCC(=O)C(C)(C)C5CC[C@]43C)[C@@H]2C1 (stereo partly drawn) [STX194, Methyl 3-oxo-18β-glycerrhetate]	75 ± 2.93	65.8 ± 5.69	–
COC(=O)[C@@]1(C)CC[C@]2(C)CC[C@]3(C)C(=CC(=O)C4[C@@]5(C)CC[C@H](O)C(C)(C)C5CC[C@]43C)[C@@H]2C1 (stereo partly drawn) [STX195, 3β-Hydroxy-11-oxo-18β-glycyrrhetinic acid methyl ester]	105 ± 1.55	85.4 ± 2.29	–

From patent publication US20040147494A1, “Use” (priority 2001, published 2004)
